The record followed here is patent US20260240826A1, “COMPOSITIONS FOR PD-L1 INHIBITION AND METHODS OF USE THEREOF” (ARIZONA BOARD OF REGENTS ON BEHALF OF THE UNIVERSITY OF …, priority 2023, published 2026).

Series [1] relates to AP-1 luciferase SKH-1 reporter mice. The series can be described thus: AP-1 SKH-1 reporter mouse bioluminescence. The following applies: topical 8 mM; imaged 24 hr after UVB. The class given is in vivo. On the procedure:
(§1) UVB exposure was performed on AP-1 luciferase reporter mice on the SKH-1 genetic background at a dose of 2.75 kJ/m2 using FS40 bulbs (Q-Lab Corporation) as described before with the modification that mice were imaged 24 hr post UVB exposure using whole body bioluminescence instead of 48 hr post UVB using ear punches. SSL irradiation of SKH-1 mice (Charles River Laboratories, strain code 477) at a dose of 90 kJ/m2 UVA/6 kJ/m2 UVB was performed using UVA-340 bulbs (Q-Lab Corporation) as described before.
Male transgenic SKH-1 mice heterozygous for the TPA-Response Element (TRE)-driven luciferase transgene (“AP-1 luciferase” mice, n=3) were treated topically on their backs with 200 μL of 8 mM BMS-202 or vehicle control (acetone). For all mice receiving BMS-202, the compound was applied twice before (24 hr and 1 hr) as well as immediately after UV exposure, a dose regimen ensuring efficient target modulation, similar to topical non-sunscreen photoprotection approaches. Mice were injected i.p. with luciferin (potassium salt) stock solution in PBS without magnesium or calcium at a dose of <150 mg/kg of body weight 24 hr after UV exposure and imaged (Lago instrument, Spectral Instruments Imaging) with Aura software analysis.

Series [2] can be described thus: screening based on physicochemical properties (Log P, UVA/UVB absorbance). The following applies: data not shown.
Series [3] has as its system PD-L1. The series can be described thus: PD-L1 immunohistochemistry of SKH-1 mouse skin. The class given is in vivo. Particulars: topical 8 mM pre/post; 24 hr post SSL. On the procedure: as §1
PD-L1: IHC staining for PD-L1 in mouse skins was performed using the NBP1-43262 antibody (Novus). Epidermal PD-L1 expression is shown as percent staining determined by ImageJ (NIH, open source) quantification using color deconvolution of the brown stain with a uniform threshold between all samples. Each skin sample (n=3, 20× field) was used to measure at least 3 fields per specimen with the exclusion of hair follicles, if present.
Mouse IHC data were analyzed using Kruskal-Wallis non-parametric data analysis (GraphPad Prism 10.0 software). IHC images shown are magnified according to the 100 μm scale bar contained in the respective panel as specified throughout the figure legends.

For `COc1nc(OCc2cccc(-c3ccccc3)c2C)ccc1CNCCNC(C)=O` [BMS-202], the “attenuation in bioluminescent signal intensity (UV-induced AP-1 stress response)” value in series [1] is recorded as roughly 5 fold. Further, the UVA/UVB absorbance result in series [2] is “absence of UVA/UVB absorbance”. In addition, the “epidermal PD-L1 staining (IHC)” value in series [3] is “pronounced inhibition”.
